From ChEMBL document CHEMBL5331060, “Bisindole natural products: A vital source for the development of new anticancer drugs” (Eur J Med Chem, 2022)
Values after ≈ are worked out from the molar mass of the structure shown.

Legend:
[1] = tested on: K562; assay: Antiproliferative activity against human K562 cells assessed as inhibition of cell growth incubated for 48 hrs by WST-1 assay; assay type: functional, cell-based; details: K562, 48 h
[2] = tested on: HL-60; assay: Antiproliferative activity against human HL-60 cells assessed as inhibition of cell growth incubated for 48 hrs by WST-1 assay; assay type: functional, cell-based; details: HL-60, 48 h
[3] = tested on: MCF7; assay: Antiproliferative activity against human MCF7 cells assessed as inhibition of cell growth incubated for 24 hrs by MTT assay; assay type: functional, cell-based; details: MCF7, 24 h
[4] = tested on: KB; assay: Antiproliferative activity against human KB cells assessed as inhibition of cell growth incubated for 72 hrs by neutral red based colorimetric assay; assay type: functional
[5] = tested on: HepG2; assay: Antiproliferative activity against human HepG2 cells assessed as inhibition of cell growth by MTT assay; assay type: functional, cell-based
[6] = tested on: MCF7; assay: Antiproliferative activity against human MCF7 cells assessed as inhibition of cell growth by MTT assay; assay type: functional, cell-based
[7] = tested on: LoVo; assay: Antiproliferative activity against human LoVo cells assessed as inhibition of cell growth by MTT assay; assay type: functional, cell-based
[8] = tested on: HeLa; assay: Antiproliferative activity against human HeLa cells assessed as inhibition of cell growth incubated for 6 hrs; assay type: functional, cell-based
[9] = tested on: HeLa; assay: Antiproliferative activity against human HeLa cells assessed as inhibition of cell growth incubated for 24 hrs; assay type: functional, cell-based
[10] = Antiproliferative activity against mouse […] cells assessed as inhibition of cell growth; assay type: functional, cell-based
[11] = tested on: HT-29; assay: Antiproliferative activity against human HT-29 cells assessed as inhibition of cell growth incubated for 48 hrs by MTS assay; assay type: functional, cell-based; details: HT-29, 48 h
[12] = tested on: HeLa; assay: Antiproliferative activity against human HeLa cells assessed as inhibition of cell growth incubated for 48 hrs by MTT assay; assay type: functional, cell-based
[13] = tested on: SMMC-7721; assay: Antiproliferative activity against human SMMC-7721 cells assessed as inhibition of cell growth incubated for 48 hrs by MTS assay; assay type: functional, cell-based; details: SMMC-7721, 48 h
[14] = tested on: A549; assay: Antiproliferative activity against human A549 cells assessed as inhibition of cell growth incubated for 48 hrs by MTS assay; assay type: functional, cell-based; details: A549, 48 h
[15] = tested on: MCF7; assay: Antiproliferative activity against human MCF7 cells assessed as inhibition of cell growth incubated for 48 hrs by MTT assay; assay type: functional, cell-based; details: MCF7, 48 h
[16] = tested on: SW480; assay: Antiproliferative activity against human SW480 cells assessed as inhibition of cell growth incubated for 48 hrs by MTT assay; assay type: functional, cell-based; details: SW480, 48 h
[17] = tested on: KB; assay: Antiproliferative activity against drug-sensitive human KB cells assessed as inhibition of cell growth; assay type: functional, cell-based
[18] = Antiproliferative activity against vincristine-resistant human KB cells assessed as inhibition of cell growth; assay type: functional, cell-based
[19] = tested on: HL-60; assay: Antiproliferative activity against human HL-60 cells assessed as inhibition of cell growth incubated for 48 hrs by MTS assay; assay type: functional, cell-based; details: HL-60, 48 h
[20] = tested on: SW480; assay: Antiproliferative activity against human SW480 cells assessed as inhibition of cell growth incubated for 48 hrs by MTS assay; assay type: functional, cell-based; details: SW480, 48 h
[21] = tested on: MCF7; assay: Antiproliferative activity against human MCF7 cells assessed as inhibition of cell growth incubated for 48 hrs by MTS assay; assay type: functional, cell-based; details: MCF7, 48 h
[22] = tested on: AGS; assay: Antiproliferative activity against human AGS cells assessed as inhibition of cell growth incubated for 24 hrs by MTT assay; assay type: functional, cell-based
[23] = tested on: L1210; assay: Antiproliferative activity against mouse L1210 cells assessed as inhibition of cell growth incubated for 24 hrs by MTT assay; assay type: functional, cell-based; details: L1210, 24 h
[24] = Antiproliferative activity against human BC cells assessed as inhibition of cell growth incubated for 24 hrs by MTT assay; assay type: functional, cell-based

CC[C@]12C=CCN3CC[C@@]4(c5cc([C@@]6(C(=O)OC)C[C@@H]7CC(=O)N(CCc8c6[nH]c6ccccc86)C7)c(OC)cc5N(C)[C@H]4[C@@](O)(C(=O)OC)C1)[C@@H]32
IC50 [1]: 9.3 µM
IC50 [2]: 9.1 µM

CCC(=O)C[C@@H]1CN(C=O)CCc2c([nH]c3ccccc23)[C@@](C(=O)OC)(c2cc3c(cc2OC)N(C)[C@@H]2[C@]34CCN3CC=C[C@@](CC)(C[C@]2(O)C(=O)OC)[C@H]34)C1
IC50 [1]: 56.2 µM
IC50 [2]: 56.2 µM

O=C1C[C@@H]2c3cc(O)c(O)cc3[C@@]3(Nc4ccccc4C3=O)[C@@]23C(=O)c2ccccc2N13
IC50 [3]: 32.2 µM

C/C=C1/CN2CC[C@@]34c5cc(OC)c(-c6cc7c8c(n(C)c7cc6OC)[C@@H]6[C@H]7O[C@@H](C)[C@H](CN6C(=O)C(C)C)[C@H]7[C@H]8C(=O)OC)c(C)c5N[C@@]23CC[C@H]1[C@H]4C(=O)OC
IC50 [4]: 5 µM

CC/C1=C/N(C=O)CCc2c([nH]c3ccccc23)[C@@](C(=O)OC)(c2cc3c(cc2OC)N(C)[C@H]2[C@@](O)(C(=O)OC)[C@H](OC(C)=O)[C@]4(CC)C=CCN5CC[C@]32[C@@H]54)CC(=O)C1
IC50 [1]: 56.2 µM
IC50 [2]: 56.2 µM

CC[C@]1(O)C[C@H]2C[C@](C(=O)OC)(c3cc4c(cc3OC)N(C)[C@@H]3[C@]45CCN4CC=C[C@@](CC)(C[C@]3(O)C(=O)OC)[C@H]45)c3[nH]c4ccccc4c3CC[N+]([O-])(C2)C1
IC50 [5]: 28.1 µM
IC50 [6]: 42.7 µM
IC50 [7]: > 100 µM

NC[C@@H](NC(=O)C(=O)c1c[nH]c2ccccc12)c1c[nH]c2cc(Br)ccc12
IC50 [8]: > 200 µM
IC50 [9]: > 200 µM

CC[C@]12CN3CC[C@@]45C(=Nc6ccccc64)[C@@](C(=O)OC)(c4cc6c(cc4OC)N(C)[C@H]4[C@@](O)(C(=O)OC)[C@H](OC(C)=O)[C@]7(CC)C=CCN8CC[C@]64[C@@H]87)C[C@H]([C@H]1O2)[C@H]35
IC50 [1]: 56.2 µM
IC50 [2]: 56.2 µM

C/C=C1/CN(C)[C@H]2Cc3c([nH]c4ccccc34)[C@H](c3c(OC)ccc4c5c6n(c34)C[C@@H]3C[C@@H](CC)[C@@H](NCC5)[C@@]6(C(=O)OC)C3)C[C@H]1[C@]2(CO)C(=O)OC
IC50 [5]: 38.1 µM

O=C1C[C@H]2c3ccc(O)c(O)c3[C@]3(Nc4ccccc4C3=O)[C@]23C(=O)c2ccccc2N13
IC50 [3]: 78.5 µM

Brc1ccc2c(-c3c[nH]c(-c4c[nH]c5ccccc45)n3)c[nH]c2c1 [NORTOPSENTIN C]
IC50 [10]: 1.7 µg/mL (≈ 4.51 µM)

N[C@H](CNC(=O)C(=O)c1c[nH]c2ccccc12)c1c[nH]c2cc(Br)ccc12
IC50 [8]: 165 µM
IC50 [9]: 146 µM

CC[C@@]12C=C(C(=O)OC)C3Nc4cc(OC)c(O)cc4[C@@]34CCN([C@@H]3c5cc6c(cc5O[C@@H]3[C@H]1O)NC1=C(C(=O)OC)C[C@]3(CC)[C@@H]5O[C@@H]5CN5CC[C@@]16[C@@H]53)[C@@H]24 (some centres undefined)
IC50 [11]: > 40 µM
IC50 [12]: 1.42 µM
IC50 [13]: > 40 µM
IC50 [14]: > 40 µM
IC50 [15]: 1.42 µM
IC50 [16]: 1.42 µM

CC[C@H]1[C@@H]2CCN3CC[C@@]4(C5=C2C[C@@]2(CN5c5ccccc54)C4=Nc5ccccc5[C@]45CCN4CC[C@H]2[C@H](CC)[C@@H]45)[C@@H]13
IC50 [17]: 0.57 µM
IC50 [18]: 0.57 µM

CC[C@@]12CC(C(=O)OC)=C3Nc4cc5c(cc4[C@@]34CCN(C[C@H]3O[C@H]31)[C@@H]24)[C@@H]1[C@H](O5)[C@@H](O)[C@@]2(CC)CC(C(=O)OC)=C3Nc4c(cc(O)c(OC)c4OC)[C@@]34CC[N+]1([O-])[C@@H]24 (some centres undefined)
IC50 [12]: 1.42 µM
IC50 [15]: 1.42 µM
IC50 [16]: 1.42 µM

CC[C@]12CN3CCc4c([nH]c5ccccc45)[C@@](C(=O)OC)(c4cc5c(cc4OC)N(C)[C@H]4[C@@](O)(C(=O)OC)[C@H](OC(C)=O)[C@]6(CC)C=CCN7CC[C@]54[C@@H]76)C[C@@H](C3)[C@H]1O2 [VINLEUROSINE]
IC50 [1]: 56.2 µM
IC50 [2]: 56.2 µM

CC[C@]1(O)C[C@@H]2CN(CCc3c([nH]c4ccccc34)[C@@](C(=O)OC)(c3cc4c(cc3OC)N(C)[C@H]3[C@@](O)(C(=O)OC)[C@H](OC(C)=O)[C@]5(CC)C=CCN6CC[C@]43[C@@H]65)C2)C1 [VINBLASTINE]
IC50 [4]: 0.008 µM

CC[C@]12C=C[C@H](C3=C[C@@]4(CC)CC(C(=O)OC)=C5Nc6ccccc6[C@@]56CCN([C@@H]3CC(C)=O)[C@@H]46)N3CC[C@]4(C(=C(C(=O)OC)C1)Nc1ccccc14)[C@@H]32
IC50 [13]: 13.1 µM
IC50 [19]: 13.1 µM
IC50 [14]: 13.1 µM
IC50 [20]: 13.1 µM
IC50 [21]: 13.1 µM

O=C1C[C@H]2c3cc(O)c(O)cc3[C@]3(Nc4ccccc4C3=O)[C@]23C(=O)c2ccccc2N13
IC50 [3]: 31.7 µM

CC[C@]12C=CCN3CC[C@]4(C(=C(C(=O)OC)C1)Nc1cc5c(cc14)[C@@H]1[C@H](O5)[C@@H](O)[C@@]4(CC)CC(C(=O)OC)=C5Nc6c(ccc(OC)c6OC)[C@@]56CCN1[C@@H]46)[C@@H]32
IC50 [11]: 0.75 µM
IC50 [12]: 1.42 µM
IC50 [13]: 0.3 µM
IC50 [14]: 3.41 µM
IC50 [15]: 1.42 µM
IC50 [16]: 1.42 µM

Brc1ccc2c(-c3c[nH]c(-c4c[nH]c5cc(Br)ccc45)n3)c[nH]c2c1 [NORTOPSENTIN A]
IC50 [10]: 7.6 µg/mL (≈ 16.7 µM)

CC[C@]12C=C([C@H]3C=C[C@@]4(CC)CC(C(=O)OC)=C5Nc6ccccc6[C@@]56CCN3[C@@H]46)CN3CC[C@]4(C(=C(C(=O)OC)C1)Nc1ccccc14)[C@@H]32
IC50 [13]: 13.1 µM
IC50 [19]: 13.1 µM
IC50 [14]: 13.1 µM
IC50 [20]: 13.1 µM
IC50 [21]: 13.1 µM

C/C=C1/CN2[C@H]3Cc4c([nH]c5ccc(O)c([C@H]6Cn7c8c(c9ccccc97)CCN7CC=C[C@@]6(CC)[C@H]87)c45)[C@@H]2C[C@@H]1[C@]3(CO)C(=O)OC
IC50 [17]: 0.57 µM
IC50 [18]: 0.57 µM

CC[C@]12C=C([C@@H]3C=C[C@@]4(CC)CC(C(=O)OC)=C5Nc6ccccc6[C@@]56CCN3[C@@H]46)[C@@H](CC(C)=O)N3CC[C@]4(C(=C(C(=O)OC)C1)Nc1ccccc14)[C@@H]32
IC50 [13]: 13.1 µM
IC50 [19]: 13.1 µM
IC50 [14]: 13.1 µM
IC50 [20]: 13.1 µM
IC50 [21]: 13.1 µM

CC[C@@]12CC(C(=O)OC)=C3Nc4cc5c(cc4[C@@]34CCN(C[C@@H]3O[C@@H]31)[C@@H]24)[C@@H]1[C@H](O5)[C@@H](O)[C@@]2(CC)CC(C(=O)OC)=C3Nc4c(cc(O)c(OC)c4OC)[C@@]34CCN1[C@@H]24
IC50 [12]: 1.42 µM
IC50 [15]: 1.42 µM
IC50 [16]: 1.42 µM

CCC(=O)[C@H](O)[C@@H]1CN(C=O)CCc2c([nH]c3ccccc23)[C@@](C(=O)OC)(c2cc3c(cc2OC)N(C)[C@H]2[C@@](O)(C(=O)OC)[C@H](OC(C)=O)[C@]4(CC)C=CCN5CC[C@]32[C@@H]54)C1
IC50 [1]: > 100 µM
IC50 [2]: > 100 µM

C/C=C1/CN2CC[C@@]34c5cc(OC)c(-c6cc7c8c(n(C)c7cc6OC)[C@@H]6[C@H]7O[C@@H](C)[C@H](CN6C(=O)C(C)C)[C@H]7[C@H]8C(=O)OC)c(C)c5N(C)[C@@]23CC[C@H]1[C@H]4C(=O)OC
IC50 [4]: 6 µM

CC[C@]12C=C[C@H]([C@@]34CN5CC[C@]67C(=C(C(=O)OC)C[C@](CC)([C@@H]3O4)[C@H]56)Nc3cc(OC)ccc37)N3CC[C@]4(C(=C(C(=O)OC)C1)Nc1cc(OC)ccc14)[C@@H]32
IC50 [13]: 13.1 µM
IC50 [19]: 13.1 µM
IC50 [14]: 13.1 µM
IC50 [20]: 13.1 µM
IC50 [21]: 13.1 µM

O=C(C1=NC(c2c[nH]c3cc(Br)ccc23)CN1)c1c[nH]c2ccccc12 (centres undefined) [SPONGOTINE A]
IC50 [22]: 1.1 µg/mL (≈ 2.7 µM)
IC50 [23]: 1.1 µg/mL (≈ 2.7 µM)
IC50 [24]: 10.7 µg/mL (≈ 26.3 µM)

Brc1ccc2c(-c3nc(-c4c[nH]c5ccccc45)c[nH]3)c[nH]c2c1 [NORTOPSENTIN B]
IC50 [10]: 7.8 µg/mL (≈ 20.7 µM)
